# Legend:
# Experiment in all cases: NCI 60 cell line single dose screen
# Format in all cases: cell-based, human
# SK-MEL-5 = SK-MEL-5 (Melanoma), 10 micromolar, 48 h
# Text: (§1) Analog 10 was screened utilizing 60 different human tumor cell lines, representing leukemia, melanoma and cancers of the lung, colon, brain, ovary, breast, prostate, and kidney in order to show selective growth inhibition or cell killing of particular tumor cell lines. This screen is unique in that the complexity of a 60 cell line dose response produced by a given compound results in a biological response pattern which can be utilized in pattern recognition algorithms (COMPARE program. See: http://dtp.nci.nih.gov/docs/compare/compare.html). Using these algorithms, it is possible to assign a putative mechanism of action to a test compound, or to determine that the response pattern is unique and not similar to that of any of the standard prototype compounds included in the NCI database. In addition, following characterization of various cellular molecular targets in the 60 cell lines, it may be possible to select compounds most likely to interact with a specific molecular target.
# (§2) The screening is a two-stage process, beginning with the evaluation of the compound against the 60 cell lines at a single dose of 10 uM.
# (§3) The human tumor cell lines of the cancer screening panel are grown in RPMI 1640 medium containing 5% fetal bovine serum and 2 mM L-glutamine. For a typical screening experiment, cells are inoculated into 96 well microtiter plates in 100 μL at plating densities ranging from 5,000 to 40,000 cells/well depending on the doubling time of individual cell lines. After cell inoculation, the microtiter plates are incubated at 37° C., 5% CO2, 95% air and 100% relative humidity for 24 h prior to addition of experimental drug.
# (§4) After 24 h, two plates of each cell line are fixed in situ with TCA, to represent a measurement of the cell population for each cell line at the time of drug addition (Tz). Experimental drugs are solubilized in dimethyl sulfoxide at 400-fold the desired final maximum test concentration and stored frozen prior to use. At the time of drug addition, an aliquot of frozen concentrate is thawed and diluted to twice the desired final maximum test concentration with complete medium containing 50 μg/ml gentamicin.
# (§5) Following drug addition, the plates are incubated for an additional 48 h at 37° C., 5% CO2, 95% air, and 100% relative humidity. For adherent cells, the assay is terminated by the addition of cold TCA. Cells are fixed in situ by the gentle addition of […] of cold 50% (w/v) TCA (final concentration, 10% TCA) and incubated for 60 minutes at 4° C. The supernatant is discarded, and the plates are washed five times with tap water and air dried. Sulforhodamine B (SRB) solution (100 μl) at 0.4% (w/v) in 1% acetic acid is added to each well, and plates are incubated for 10 minutes at room temperature. After staining, unbound dye is removed by washing five times with 1% acetic acid and the plates are air dried. Bound stain is subsequently solubilized with 10 mM trizma base, and the absorbance is read on an automated plate reader at a wavelength of 515 nm. For suspension cells, the methodology is the same except that the assay is terminated by fixing settled cells at the bottom of the wells by gently adding 50 μl of 80% TCA (final concentration, 16% TCA). Using the absorbance measurements [time zero, (Tz), control growth, (C), and test growth in the presence of drug (Ti)], the percentage growth is calculated.
# NCI-H23 = NCI-H23 (Non-Small Cell Lung Cancer), 10 micromolar, 48 h
# Text: as §1, §2, §3, §4, §5
# MDA-MB-231/ATCC = MDA-MB-231/ATCC (Breast Cancer), 10 micromolar, 48 h
# Text: as §1, §2, §3, §4, §5
# UO-31 = UO-31 (Renal Cancer), 10 micromolar, 48 h
# Text: as §1, §2, §3, §4, §5
# BT-549 = BT-549 (Breast Cancer), 10 micromolar, 48 h
# Text: as §1, §2, §3, §4, §5
# NCI-H522 = NCI-H522 (Non-Small Cell Lung Cancer), 10 micromolar, 48 h
# Text: as §1, §2, §3, §4, §5
# MCF7 = MCF7 (Breast Cancer), 10 micromolar, 48 h
# Text: as §1, §2, §3, §4, §5
# SNB-19 = SNB-19 (CNS Cancer), 10 micromolar, 48 h
# Text: as §1, §2, §3, §4, §5
# NCI-H226 = NCI-H226 (Non-Small Cell Lung Cancer), 10 micromolar, 48 h
# Text: as §1, §2, §3, §4, §5
# SK-OV-3 = SK-OV-3 (Ovarian Cancer), 10 micromolar, 48 h
# Text: as §1, §2, §3, §4, §5
# SF-539 = SF-539 (CNS Cancer), 10 micromolar, 48 h
# Text: as §1, §2, §3, §4, §5
# SNB-75 = SNB-75 (CNS Cancer), 10 micromolar, 48 h
# Text: as §1, §2, §3, §4, §5
# OVCAR-4 = OVCAR-4 (Ovarian Cancer), 10 micromolar, 48 h
# Text: as §1, §2, §3, §4, §5
# HCC-2998 = HCC-2998 (Colon Cancer), 10 micromolar, 48 h
# Text: as §1, §2, §3, §4, §5
# SF-268 = SF-268 (CNS Cancer), 10 micromolar, 48 h
# Text: as §1, §2, §3, §4, §5
# CAKI-1 = CAKI-1 (Renal Cancer), 10 micromolar, 48 h
# Text: as §1, §2, §3, §4, §5
# UACC-257 = UACC-257 (Melanoma), 10 micromolar, 48 h
# Text: as §1, §2, §3, §4, §5
# HOP-62 = HOP-62 (Non-Small Cell Lung Cancer), 10 micromolar, 48 h
# Text: as §1, §2, §3, §4, §5
smiles,measurement,setting,value
COCCC(=O)NC[C@H](O)[C@H](C)C(=O)NCCC[C@H]1O[C@@]2(CCC[C@@H](CC[C@H](C)/C=C(\C)[C@H](C)O)O2)CCC1C (stereo partly drawn) [Analog 10],Growth Percent,SK-MEL-5,75.27%
same,Growth Percent,NCI-H23,56.78%
same,Growth Percent,MDA-MB-231/ATCC,43.18%
same,Growth Percent,UO-31,22.67%
same,Growth Percent,BT-549,29.35%
same,Growth Percent,NCI-H522,32.60%
same,Growth Percent,MCF7,62.27%
same,Growth Percent,SNB-19,75.95%
same,Growth Percent,NCI-H226,58.32%
same,Growth Percent,SK-OV-3,59.10%
same,Growth Percent,SF-539,40.64%
same,Growth Percent,SNB-75,6.67%
same,Growth Percent,OVCAR-4,45.16%
same,Growth Percent,HCC-2998,66.34%
same,Growth Percent,SF-268,37.08%
same,Growth Percent,CAKI-1,−37.52%
same,Growth Percent,UACC-257,72.55%
same,Growth Percent,HOP-62,40.92%
